Experimental findings from ChEMBL document CHEMBL1146305, “Synthesis of pyochelin-norfloxacin conjugates” (Bioorg Med Chem Lett, 2007) are described below.

This experiment deals with Pseudomonas aeruginosa. The experiment can be described thus: Antibacterial activity against Pseudomonas aeruginosa PAO1. The format is functional, organism-based.

Activity calls are given as the source filed them. The calls are words filed in the database; no cut-off is given here.

On to `CCn1cc(C(=O)O)c(=O)c2cc(F)c(N3CCN(C(=O)OCOC(=O)CCC(=O)NCCCc4ccc(O)c(C5=NC(C6SCC(C(=O)O)N6C)CS5)c4)CC3)cc21` (configuration not stated), for which the outcome was Active.
The same measure for `CCn1cc(C(=O)O)c(=O)c2cc(F)c(N3CCN(C(=O)OCOC(=O)CCC(=O)NCC#Cc4ccc(O)c(C5=NC(C6SCC(C(=O)O)N6C)CS5)c4)CC3)cc21` (configuration not stated): “Active”.
